Literature values, collected in article PMC7759869 (Biomedicines, 2020).

Columns and labels:
CYP3A4 = CYP3A4 (Homo sapiens, UniProt P08684); settings: cited from earlier work
[1] = set-up: method as in earlier work; settings: cited from earlier work
VEGFR2 = settings: read-out: IC50 for VEGFR2; estimated; cited from earlier work

Sequence of CYP3A4 (P08684 whole entry): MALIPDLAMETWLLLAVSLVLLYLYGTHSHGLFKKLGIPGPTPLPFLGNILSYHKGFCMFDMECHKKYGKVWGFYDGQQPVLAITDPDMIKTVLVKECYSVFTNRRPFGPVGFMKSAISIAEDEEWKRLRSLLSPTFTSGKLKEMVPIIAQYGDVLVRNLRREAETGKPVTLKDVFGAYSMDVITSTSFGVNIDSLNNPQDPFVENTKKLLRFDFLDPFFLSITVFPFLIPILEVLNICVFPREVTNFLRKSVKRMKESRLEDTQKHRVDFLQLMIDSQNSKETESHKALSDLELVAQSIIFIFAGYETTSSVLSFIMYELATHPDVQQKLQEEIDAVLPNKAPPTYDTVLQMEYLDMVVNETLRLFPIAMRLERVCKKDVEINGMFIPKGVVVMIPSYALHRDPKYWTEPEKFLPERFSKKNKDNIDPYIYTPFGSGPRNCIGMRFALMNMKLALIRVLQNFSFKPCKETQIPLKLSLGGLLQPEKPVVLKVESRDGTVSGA

In the case of `COc1cc2nccc(Oc3ccc(NC(=O)C4(C(=O)Nc5ccc(F)cc5)CC4)cc3)c2cc1OC` [cabozantinib, N′1-{4-[(6,7-dimethoxyquinolin-4-yl)oxy]phenyl}-N1-(4-fluorophenyl)cyclopropane-1,1-dicarboxamide], the “Inhibition of CYP3A4-mediated testosterone 6β-hydroxylation” value (CYP3A4) is given as “did not inhibit”, the “Bound by proteins in human plasma” value [1] is given as at least 99.7% and the IC50 (VEGFR2) is given as […].
